# Data published in article PMC4080982, “Interactions of antagonists with subtypes of inositol 1,4,5-trisphosphate (IP3) receptor” (British Journal of Pharmacology, 2014).
# Tests used:
# [1] = system: HEK cells; test: Steady-state Ca^2+ content of the intracellular stores of permeabilized HEK cells; assay type: cell-based; conditions: 5 min
# Method: (§1) A low-affinity Ca^2+ indicator trapped within the ER of permeabilized DT40 cells was used to measure IP3-evoked Ca^2+ release (Tovey et al., [2006]; Saleem et al., [2012]). Briefly, the ER was loaded with indicator by incubating cells (∼5 × 10^7 mL^−1) in the dark with Mag-fluo-4AM (20 μM) in HEPES-buffered saline (HBS) containing 0.02% (v/v) Pluronic F127 for 1 h at 22°C. HBS had the following composition: 135 mM NaCl, 5.9 mM KCl, 11.6 mM HEPES, 1.5 mM CaCl2, 11.5 mM glucose, 1.2 mM MgCl2, pH 7.3. After permeabilization of the plasma membrane with saponin (10 μg·mL^−1, 4 min, 37°C) in Ca^2+-free cytosol-like medium (CLM), permeabilized cells were washed (650× g, 2 min) and resuspended (∼10^7 mL^−1) in Mg^2+-free CLM containing carbonyl cyanide 4-(trifluoromethoxy) phenylhydrazone (FCCP, 10 μM) to inhibit mitochondria, and supplemented with CaCl2 to give a final free [Ca^2+] of 220 nM after addition of 1.5 mM MgATP. […] Addition of MgATP (1.5 mM) allowed Ca^2+ uptake by the ER, which was monitored at intervals of ∼1 s using a FlexStation-3 plate reader (MDS Analytical Devices, Berkshire, UK; Tovey et al., [2006]). […] IP3-evoked Ca^2+ release was expressed as a fraction of that released by ionomycin (1 μM; Tovey et al., [2006]). […] The affinity of each competitive antagonist (pKD) was determined from the intercept on the abscissa of the Schild plot.
# [2] = system: permeabilized DT40-IP3R1-3 cells; test: Ca^2+ uptake and Ca^2+ content of the intracellular stores of permeabilized DT40 cells; assay type: cell-based; conditions: permeabilized DT40 cells, 5 min pre-incubation
# Method: Briefly, the ER was loaded with indicator by incubating cells (∼5 × 10^7 mL^−1) in the dark with Mag-fluo-4AM (20 μM) in HEPES-buffered saline (HBS) containing 0.02% (v/v) Pluronic F127 for 1 h at 22°C. […] Ca^2+-free CLM had the following composition: 2 mM NaCl, 140 mM KCl, 1 mM EGTA, 20 mM PIPES, 2 mM MgCl2, pH 7.0. Permeabilized cells were then distributed into 96-well plates (50 μL, 5 × 10^5 cells per well), centrifuged (300× g, 2 min) and used for experiments at 20°C. […] After 2 min, when the ER had loaded to steady-state with Ca^2+, IP3 was added with CPA (10 μM) to inhibit further Ca^2+ uptake. […] The timings of antagonist additions are described in the figure legends. The affinity of each competitive antagonist (pKD) was determined from the intercept on the abscissa of the Schild plot.
# [3] = system: HEK cells; set-up: method as in Kurian et al., [2009]; conditions: Xestospongin C 10 μM for 30 min in Ca^2+-free medium, ref Kurian et al., [2009]; cited from earlier work
# [4] = target: T1, rat IP3R1 (Rattus norvegicus, UniProt P29994); test: IP3-evoked Ca^2+ release from permeabilized DT40-IP3R1 cells; assay type: cell-based; conditions: IP3R1
# T1 construct: different for NTs (NT2 > NT1 > > NT3) and full-length IP3Rs (IP3R3 > IP3R1 ≥ IP3R2); expressed in transfected cells
# Method: (§2) We used DT40 cells lacking endogenous IP3Rs (Sugawara et al., [1997]), but stably expressing rat IP3R1 (GenBank accession number GQ233032.1; Pantazaka and Taylor, [2011]), mouse IP3R2 (GU980658.1; Tovey et al., [2010]) or rat IP3R3 (GQ233031.1; Rahman et al., [2009]). Cells were grown in suspension in RPMI 1640 medium supplemented with 10% FBS, 1% heat-inactivated chicken serum, 2 mM glutamine and 50 μM 2-mercaptoethanol at 37°C in humidified air containing 5% CO2. Cells were used or passaged when they reached a density of ∼1.5 × 10^6 cells mL^−1.
# (§3) A low-affinity Ca^2+ indicator trapped within the ER of permeabilized DT40 cells was used to measure IP3-evoked Ca^2+ release (Tovey et al., [2006]; Saleem et al., [2012]). Briefly, the ER was loaded with indicator by incubating cells (∼5 × 10^7 mL^−1) in the dark with Mag-fluo-4AM (20 μM) in HEPES-buffered saline (HBS) containing 0.02% (v/v) Pluronic F127 for 1 h at 22°C. HBS had the following composition: 135 mM NaCl, 5.9 mM KCl, 11.6 mM HEPES, 1.5 mM CaCl2, 11.5 mM glucose, 1.2 mM MgCl2, pH 7.3. After permeabilization of the plasma membrane with saponin (10 μg·mL^−1, 4 min, 37°C) in Ca^2+-free cytosol-like medium (CLM), permeabilized cells were washed (650× g, 2 min) and resuspended (∼10^7 mL^−1) in Mg^2+-free CLM containing carbonyl cyanide 4-(trifluoromethoxy) phenylhydrazone (FCCP, 10 μM) to inhibit mitochondria, and supplemented with CaCl2 to give a final free [Ca^2+] of 220 nM after addition of 1.5 mM MgATP. Ca^2+-free CLM had the following composition: 2 mM NaCl, 140 mM KCl, 1 mM EGTA, 20 mM PIPES, 2 mM MgCl2, pH 7.0. Permeabilized cells were then distributed into 96-well plates (50 μL, 5 × 10^5 cells per well), centrifuged (300× g, 2 min) and used for experiments at 20°C. Addition of MgATP (1.5 mM) allowed Ca^2+ uptake by the ER, which was monitored at intervals of ∼1 s using a FlexStation-3 plate reader (MDS Analytical Devices, Berkshire, UK; Tovey et al., [2006]). After 2 min, when the ER had loaded to steady-state with Ca^2+, IP3 was added with CPA (10 μM) to inhibit further Ca^2+ uptake. IP3-evoked Ca^2+ release was expressed as a fraction of that released by ionomycin (1 μM; Tovey et al., [2006]). Similar methods were used to measure IP3-evoked Ca^2+ release from intact or permeabilized HEK cells (Tovey et al., [2008]). The timings of antagonist additions are described in the figure legends. The affinity of each competitive antagonist (pKD) was determined from the intercept on the abscissa of the Schild plot.
# (§4) Concentration–effect relationships were fitted to Hill equations using Prism (version 5.0, GraphPad, San Diego, CA, USA), from which Hill coefficients (h), the fraction of the intracellular Ca^2+ stores released by a maximally effective concentrations of IP3, and pEC50 values were calculated.
# [5] = system: HEK cells; test: IP3-evoked Ca^2+ release from permeabilized HEK cells; assay type: cell-based; conditions: 5 min
# Method: as §1
# [6] = target: T2, rat IP3R3 (Rattus norvegicus, UniProt Q63269); test: IP3-evoked Ca^2+ release from permeabilized DT40-IP3R3 cells; assay type: cell-based; conditions: IP3R3
# T2 construct: different for NTs (NT2 > NT1 > > NT3) and full-length IP3Rs (IP3R3 > IP3R1 ≥ IP3R2); expressed in transfected cells
# Method: as §2, §3, §4
# [7] = system: cerebellar microsomes; set-up: method as in Gafni et al., [1997]; conditions: ref Gafni et al., [1997], read-out: IC50, inhibition of IP3-evoked Ca^2+ release; cited from earlier work
# [8] = system: HEK cells; test: Carbachol-evoked Ca^2+ signals in intact HEK cells; assay type: cell-based; conditions: intact HEK cells; Xestospongin 10 μM for 30 min
# Method: as §3
# [9] = target: T3, mouse IP3R2 (Mus musculus, UniProt Q9Z329); test: IP3-evoked Ca^2+ release from permeabilized DT40-IP3R2 cells; assay type: cell-based; conditions: IP3R2
# T3 construct: different for NTs (NT2 > NT1 > > NT3) and full-length IP3Rs (IP3R3 > IP3R1 ≥ IP3R2); expressed in transfected cells
# Method: as §2, §3, §4
# [10] = 5 µM, 5 min, purified (Gafni et al., 1997)
# [11] = 20 µM, 7 min, purified (Gafni et al., 1997)
# [12] = 20 µM, 12 min, purified (Gafni et al., 1997)
# [13] = Xestospongin 20 μM, pooled 7 and 12 min
# [14] = Xestospongin 20 μM, pooled from 7 and 12 min pre-incubation
# [15] = Xestospongin C 5–20 μM from either source, 5–12 min before IP3
# [16] = 10 µM, 5 min, purified (Gafni et al., 1997)
# [17] = 10 µM, 5 min, source Calbiochem
# T1 sequence (P29994 1-2735 isoform P29994-2): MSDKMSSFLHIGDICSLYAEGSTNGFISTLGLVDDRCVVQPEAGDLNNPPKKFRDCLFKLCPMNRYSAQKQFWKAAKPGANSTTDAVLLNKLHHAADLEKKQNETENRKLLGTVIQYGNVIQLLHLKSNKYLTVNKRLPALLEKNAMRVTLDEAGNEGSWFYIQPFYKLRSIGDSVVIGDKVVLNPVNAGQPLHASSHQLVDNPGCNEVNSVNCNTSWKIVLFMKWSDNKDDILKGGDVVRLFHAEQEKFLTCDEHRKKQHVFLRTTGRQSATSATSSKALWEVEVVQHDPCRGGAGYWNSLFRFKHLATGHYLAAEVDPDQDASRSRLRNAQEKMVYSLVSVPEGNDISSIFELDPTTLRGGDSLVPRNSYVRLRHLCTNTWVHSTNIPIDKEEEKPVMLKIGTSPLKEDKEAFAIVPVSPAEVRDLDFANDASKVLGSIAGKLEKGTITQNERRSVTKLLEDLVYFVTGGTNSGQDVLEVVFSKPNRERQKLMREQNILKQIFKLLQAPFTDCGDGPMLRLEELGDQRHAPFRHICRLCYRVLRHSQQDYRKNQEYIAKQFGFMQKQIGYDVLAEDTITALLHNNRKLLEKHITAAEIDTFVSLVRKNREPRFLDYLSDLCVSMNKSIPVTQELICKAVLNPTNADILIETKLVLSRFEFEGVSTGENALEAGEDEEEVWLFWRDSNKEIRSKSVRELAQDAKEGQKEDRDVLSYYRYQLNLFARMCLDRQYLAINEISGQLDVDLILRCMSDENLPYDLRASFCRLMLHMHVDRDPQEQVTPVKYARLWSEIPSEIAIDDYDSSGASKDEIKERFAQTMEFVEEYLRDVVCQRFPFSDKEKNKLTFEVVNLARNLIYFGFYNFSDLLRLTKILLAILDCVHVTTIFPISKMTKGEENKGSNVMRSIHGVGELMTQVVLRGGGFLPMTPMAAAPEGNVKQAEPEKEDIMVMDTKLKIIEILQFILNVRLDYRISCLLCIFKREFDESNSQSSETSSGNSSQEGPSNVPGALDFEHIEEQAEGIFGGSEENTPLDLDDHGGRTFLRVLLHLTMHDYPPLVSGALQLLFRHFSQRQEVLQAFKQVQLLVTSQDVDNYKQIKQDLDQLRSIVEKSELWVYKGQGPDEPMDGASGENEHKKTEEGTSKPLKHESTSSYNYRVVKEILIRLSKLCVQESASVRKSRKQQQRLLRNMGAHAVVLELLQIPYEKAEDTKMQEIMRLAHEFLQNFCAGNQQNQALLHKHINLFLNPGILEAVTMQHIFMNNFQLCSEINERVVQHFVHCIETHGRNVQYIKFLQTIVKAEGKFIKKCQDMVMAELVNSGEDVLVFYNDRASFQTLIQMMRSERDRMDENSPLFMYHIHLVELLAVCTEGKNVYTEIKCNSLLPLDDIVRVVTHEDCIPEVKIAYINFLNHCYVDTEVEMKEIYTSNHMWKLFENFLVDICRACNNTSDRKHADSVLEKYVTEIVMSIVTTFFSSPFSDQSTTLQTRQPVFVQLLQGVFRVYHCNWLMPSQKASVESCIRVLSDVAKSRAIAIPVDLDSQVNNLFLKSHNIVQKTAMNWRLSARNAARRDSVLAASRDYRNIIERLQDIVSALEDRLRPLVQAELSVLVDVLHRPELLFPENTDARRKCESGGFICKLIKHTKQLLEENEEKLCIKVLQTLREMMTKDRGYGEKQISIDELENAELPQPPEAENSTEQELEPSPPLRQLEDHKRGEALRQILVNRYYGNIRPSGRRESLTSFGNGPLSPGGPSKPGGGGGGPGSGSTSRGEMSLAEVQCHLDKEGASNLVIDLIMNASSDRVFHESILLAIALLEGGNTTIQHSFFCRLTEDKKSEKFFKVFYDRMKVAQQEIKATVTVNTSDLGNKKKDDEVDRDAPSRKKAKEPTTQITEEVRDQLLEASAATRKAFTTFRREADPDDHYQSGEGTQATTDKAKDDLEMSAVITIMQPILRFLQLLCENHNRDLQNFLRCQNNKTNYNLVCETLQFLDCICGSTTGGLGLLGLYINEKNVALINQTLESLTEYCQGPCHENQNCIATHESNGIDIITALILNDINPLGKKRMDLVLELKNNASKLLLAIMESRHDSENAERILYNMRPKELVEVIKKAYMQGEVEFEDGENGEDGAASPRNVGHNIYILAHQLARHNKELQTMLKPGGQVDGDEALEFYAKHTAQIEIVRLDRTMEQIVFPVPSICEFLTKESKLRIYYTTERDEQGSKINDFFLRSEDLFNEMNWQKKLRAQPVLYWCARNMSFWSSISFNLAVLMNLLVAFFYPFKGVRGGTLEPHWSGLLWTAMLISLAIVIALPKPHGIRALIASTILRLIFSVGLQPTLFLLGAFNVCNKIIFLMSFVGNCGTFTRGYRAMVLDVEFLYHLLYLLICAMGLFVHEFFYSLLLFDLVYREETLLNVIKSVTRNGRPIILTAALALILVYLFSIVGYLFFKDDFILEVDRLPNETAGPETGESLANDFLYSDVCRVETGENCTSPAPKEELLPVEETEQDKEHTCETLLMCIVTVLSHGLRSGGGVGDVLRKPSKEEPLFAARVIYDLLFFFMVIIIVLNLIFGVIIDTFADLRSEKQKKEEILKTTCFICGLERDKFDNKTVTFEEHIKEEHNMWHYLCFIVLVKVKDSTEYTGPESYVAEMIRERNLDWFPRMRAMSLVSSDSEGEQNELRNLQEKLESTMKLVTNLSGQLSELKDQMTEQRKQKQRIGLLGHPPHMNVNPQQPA
smiles,measurement,setting,value
C1CCC[C@H]2CCCN3CC[C@@H](CCCCCC[C@@H]4CCCN5CC[C@@H](CC1)O[C@@H]45)O[C@@H]23 [Xestospongin C],effect on Ca^2+ content of the intracellular stores,[1]; Xestospongin C 5 μM,no effect
same,effect on Ca^2+ content of the stores,[2]; 5 μM purified Xestospongin C,no significant effect
same,effect on carbachol-evoked Ca^2+ signals,[3],"substantial, though incomplete, inhibition"
same,ΔMax,[4]; [10],2 ± 2%
same,ΔpEC50,"[4]; 5 µM, 5 min, purified as described (Gafni et al., 1997)",-0.12 ± 0.12 M⁻¹
same,ΔMax,"[4]; 5 µM, 5 min, source Calbiochem",2 ± 1%
same,ΔpEC50,"[4]; 5 µM, 5 min, source Calbiochem",0.09 ± 0.07 M⁻¹
same,ΔMax,[4]; [11],9 ± 3 %
same,ΔpEC50,[4]; [11],0.08 ± 0.07 M⁻¹
same,ΔMax,[4]; [12],4 ± 3%
same,ΔpEC50,[4]; [12],0.33 ± 0.18 M⁻¹
same,ΔMax,[4]; [13],6 ± 2 %
same,ΔpEC50,[4]; [14],0.21 ± 0.10 M
same,effect on IP3-evoked Ca^2+ release,[4]; [15],no significant effect
same,effect on Ca^2+ release evoked by IP3,[5]; Xestospongin C 5 μM,no effect
same,ΔMax,[6]; [10],3 ± 14%
same,ΔpEC50,[6]; [10],0.02 ± 0.09 M⁻¹
same,ΔMax,"[6]; 5 µM, 5 min, source Calbiochem",15 ± 7%
same,ΔpEC50,"[6]; 5 µM, 5 min, source Calbiochem",-0.04 ± 0.11 M⁻¹
same,ΔMax,[6]; [11],1 ± 3%
same,ΔpEC50,[6]; [11],0.15 ± 0.02 M⁻¹
same,ΔMax,[6]; [12],2 ± 2%
same,ΔpEC50,[6]; [12],0.10 ± 0.05 M⁻¹
same,ΔMax,[6]; [13],1 ± 2%
same,ΔpEC50,[6]; [13],0.12 ± 0.03 M
same,effect on IP3-evoked Ca^2+ release,[6]; [15],no significant effect
same,IC50,[7],358 nM
same,effect on Ca^2+ signals evoked by carbachol,[8],no significant effect
same,ΔMax,[9]; [10],0 ± 4%
same,ΔMax,"[9]; 5 µM, 5 min, source Calbiochem",5 ± 6%
same,ΔMax,[9]; [11],2 ± 2%
same,ΔMax,[9]; [12],1 ± 2%
same,ΔMax,[9]; [13],1 ± 1%
same,effect on IP3-evoked Ca^2+ release,[9]; [15],no significant effect
O[C@@]12CCCCCC[C@H]3CCN4CCC[C@H](CCCCCC[C@H]5CCN(CCC1)[C@@H]2O5)[C@H]4O3 [Xestospongin D],effect on Ca^2+ content of the intracellular stores,[1]; Xestospongin D 10 μM,no effect
same,effect on Ca^2+ content of the intracellular stores,[2]; 10 μM purified Xestospongin D,no effect
same,ΔMax,[4]; [16],15 ± 4 %
same,ΔpEC50,[4]; [16],-0.02 ± 0.10 M⁻¹
same,ΔMax,[4]; [17],17 ± 6 %
same,ΔpEC50,[4]; [17],0.28 ± 0.13 M⁻¹
same,ΔMax,[4]; [11],18 ± 5 %
same,ΔpEC50,[4]; [11],0.37 ± 0.11 M⁻¹
same,ΔMax,[4]; [12],18 ± 1 %
same,ΔpEC50,[4]; [12],0.14 ± 0.12 M⁻¹
same,ΔMax,[4]; [13],18 ± 2 %
same,ΔpEC50,[4]; [14],0.26 ± 0.09 M
same,effect on IP3-evoked Ca^2+ release,"[4]; Xestospongin D 10–20 μM from either source, 5–12 min","modest, but statistically significant"
same,effect on Ca^2+ release evoked by IP3,[5]; Xestospongin D 10 μM,no effect
same,ΔMax,[6]; [16],8 ± 8%
same,ΔpEC50,[6]; [16],0.16 ± 0.26 M⁻¹
same,ΔMax,[6]; [17],12 ± 1 %
same,ΔpEC50,[6]; [17],0.03 ± 0.04 M⁻¹
same,ΔMax,[6]; [11],4 ± 2%
same,ΔpEC50,[6]; [11],0.39 ± 0.10 M⁻¹
same,ΔMax,[6]; [12],-1 ± 0%
same,ΔpEC50,[6]; [12],0.03 ± 0.08 M⁻¹
same,ΔMax,[6]; [13],2 ± 2%
same,ΔpEC50,[6]; [13],0.21 ± 0.10 M
same,effect on Ca^2+ signals evoked by carbachol,[8],no significant effect
same,ΔMax,[9]; [16],2 ± 3%
same,ΔpEC50,[9]; [16],-0.07 ± 0.07
same,ΔMax,[9]; [17],2 ± 4%
same,ΔpEC50,[9]; [17],0.25 ± 0.22
same,ΔMax,[9]; [11],5 ± 2%
same,ΔpEC50,[9]; [11],-0.06 ± 0.04
same,ΔMax,[9]; [12],11 ± 5%
same,ΔpEC50,[9]; [12],-0.23 ± 0.06
same,ΔMax,[9]; [13],8 ± 3 %
same,ΔpEC50,[9]; [13],−0.15 ± 0.05
same,ΔpEC50,"[9]; Xestospongin 20 μM, pooled 7 and 12 min, listed as XeD",-0.15 ± 0.05
